Measurements as given in article PMC9181188 (International Journal of Molecular Sciences, 2022).
≈ marks a conversion by molar mass, not a printed value. Like-named read-outs stand apart in the source and are kept apart here.

What was measured:
[1] = biological target: T1, S. aureus topoisomerase IV (Staphylococcus aureus, UniProt P0C1S7+P0C1U9); experiment: S. aureus topoisomerase IV decatenation assay; format: biochemical
T1 construct: purchased Inspiralis
Method: The assay was performed using S. aureus topoisomerase IV […] kit (Inspiralis). Kinetoplast DNA (kDNA) was the substrate for topoisomerase IV.

S. aureus DNA gyrase [2] = biological target: T2, S. aureus DNA gyrase (Staphylococcus aureus, UniProt P0A0K8+P20831); conditions: read-out: IC50 for Gyrase; inhibition of DNA supercoiling, 30 min at 37 °C
Method: (§1) The assay was performed using S. aureus DNA Gyrase Supercoiling kit (Inspiralis). […] Samples were vortexed, centrifuged, and 20 µL of the aqueous phase of each sample was loaded onto a 1% agarose gel and left for 30 min prior to electrophoresis to allow diffusion of salt. Electrophoresis was conducted in TAE buffer for 3 h at 50 V. Gels were stained with ethidium bromide and visualized under UV light in a transilluminator (ChemiDoc MP, Bio Rad, Warsaw, Poland).

S. aureus NCTC 4163 = experiment: MIC, twofold microdilution, standard strain; format: cell-based; conditions: Staphylococcus aureus, NCTC4163; 18 h of treatment; read-out: MIC S. aureus NCTC 4163
[3] = system: S. epidermidis KR 4358/2 840/19; experiment: MIC, clinical S. epidermidis strain; format: cell-based; conditions: Staphylococcus epidermidis, KR4358/2840/19; clinical S. epidermidis, quinolone-susceptible, 18 h of treatment; read-out: MIC KR 4358/2 840/19
S. aureus DNA gyrase [4] = biological target: T2, S. aureus DNA gyrase; experiment: biochemical
Method: as §1

P. aeruginosa ATCC 27853 = experiment: MIC, twofold microdilution, standard strain; format: cell-based; conditions: Pseudomonas aeruginosa, ATCC27853; 18 h of treatment; read-out: MIC P. aeruginosa ATCC 27853
[5] = system: standard staphylococci (S. aureus, S. epidermidis); experiment: MIC, standard Gram-positive strains as a group; format: cell-based; conditions: Staphylococcus aureus; range over standard Gram-positive strains; read-out: MIC against standard staphylococci
E. coli ATCC 25922 = experiment: MIC, twofold microdilution, standard strain; format: cell-based, Escherichia coli; conditions: for MIC: Escherichia coli, read-out: MIC E. coli ATCC 25922
S. aureus ATCC 25923 = experiment: MIC, twofold microdilution, standard strain; format: cell-based; conditions: Staphylococcus aureus, ATCC25923; 18 h of treatment; read-out: MIC S. aureus ATCC 25923
[6] = system: S. epidermidis KR 4243 829/19; experiment: MIC, clinical S. epidermidis strain; format: cell-based; conditions: Staphylococcus epidermidis, KR4243829/19, quinolone-susceptible, 18 h of treatment
S. aureus ATCC 6538 = experiment: MIC, twofold microdilution, standard strain; format: cell-based; conditions: Staphylococcus aureus, ATCC6538; 18 h of treatment; read-out: MIC S. aureus ATCC 6538
[7] = system: S. epidermidis ATCC 12228; experiment: MIC, twofold microdilution, standard strain; format: cell-based; conditions: Staphylococcus epidermidis, ATCC12228; 18 h of treatment; read-out: MIC S. epidermidis ATCC 12228
M. tuberculosis strains = experiment: MABA MIC, mycobacterial strains as a group; format: cell-based; conditions: Mycobacterium tuberculosis, read-out: MIC antimycobacterial (strain not specified)
[8] = system: S. epidermidis T 5501 851/19; experiment: MIC, clinical S. epidermidis strain; format: cell-based; conditions: Staphylococcus epidermidis, T5501851/19, read-out: MIC T 5501 851/19, quinolone-susceptible, 18 h of treatment
PC3 cells = experiment: MTT assay, PC3; format: cell-based, human; conditions: for IC50: human metastatic prostate cancer, 72 h, MTT, mean ± SD; for SI PC3: SI = IC50 for normal cell line (HaCaT)/IC50 cancer cell line
SW620 cells = experiment: MTT assay, SW620; format: cell-based, human; conditions: for IC50: Homo sapiens, SW-620, 72 h, human metastatic colon cancer, 72 h, MTT, mean ± SD; for SI SW620: SI = IC50 for normal cell line (HaCaT)/IC50 cancer cell line
HaCaT cells = experiment: MTT assay, HaCaT normal cells; format: cell-based; conditions: human immortal keratinocyte cell line, 72 h, mean ± SD
S. aureus ATCC 29213 = experiment: MIC, twofold microdilution, standard strain; format: cell-based; conditions: Staphylococcus aureus, ATCC29213; 18 h of treatment; read-out: MIC S. aureus ATCC 29213
[9] = system: quinolone-susceptible clinical coagulase-negative staphylococci; experiment: MIC, quinolone-susceptible clinical isolates as a group; format: cell-based; conditions: Staphylococcus epidermidis, five quinolone-susceptible isolates, read-out: MIC against quinolone-susceptible clinical isolates
[10] = system: M. tuberculosis Spec. 192 (Sensitive to Tuberculostatics); experiment: MABA (microplate Alamar blue assay) MIC; format: cell-based; conditions: Mycobacterium tuberculosis, 336 h, read-out: MIC M. tuberculosis Spec. 192 (Sensitive to Tuberculostatics)
SW480 cells = experiment: MTT assay, SW480; format: cell-based, human; conditions: for IC50: Homo sapiens, SW480, 72 h, human primary colon cancer, 72 h, MTT, mean ± SD; for SI SW480: SI = IC50 for normal cell line (HaCaT)/IC50 cancer cell line
[11] = system: S. epidermidis T 5253 845/19; experiment: MIC, clinical S. epidermidis strain; format: cell-based; conditions: Staphylococcus epidermidis, T5253845/19, quinolone-resistant, 18 h of treatment
[12] = system: S. epidermidis KR 4047 825/19; experiment: MIC, clinical S. epidermidis strain; format: cell-based; conditions: Staphylococcus epidermidis, KR4047825/19, quinolone-resistant, 18 h of treatment
M. tuberculosis H37Rv = experiment: MABA (microplate Alamar blue assay) MIC; format: cell-based; conditions: Mycobacterium tuberculosis, 336 h, read-out: MIC M. tuberculosis H37Rv
[13] = system: S. epidermidis T 5399 848/19; experiment: MIC, clinical S. epidermidis strain; format: cell-based; conditions: Staphylococcus epidermidis, T5399848/19, quinolone-susceptible, 18 h of treatment
[14] = system: S. epidermidis KR 4313 834/19; experiment: MIC, clinical S. epidermidis strain; format: cell-based; conditions: Staphylococcus epidermidis, KR4313834/19, quinolone-susceptible, 18 h of treatment
[15] = system: S. epidermidis ATCC 35984; experiment: MIC, twofold microdilution, standard strain; format: cell-based; conditions: Staphylococcus epidermidis, ATCC35984; 18 h of treatment; read-out: MIC S. epidermidis ATCC 35984
[16] = system: SW480, SW620, and PC3 cancer cell lines; experiment: MTT assay, cancer cell lines as a group; format: cell-based, human; conditions: Homo sapiens, 72 h, all three cancer cell lines (SW480, SW620, PC3), read-out: IC50 against all tested cancer cell lines
[17] = system: quinolone-resistant isolates (KR 4047 and T5253); experiment: MIC, quinolone-resistant clinical isolates as a group; format: cell-based; conditions: Staphylococcus epidermidis, read-out: MIC against quinolone-resistant clinical isolates

T1 sequence (P0C1U9 whole entry): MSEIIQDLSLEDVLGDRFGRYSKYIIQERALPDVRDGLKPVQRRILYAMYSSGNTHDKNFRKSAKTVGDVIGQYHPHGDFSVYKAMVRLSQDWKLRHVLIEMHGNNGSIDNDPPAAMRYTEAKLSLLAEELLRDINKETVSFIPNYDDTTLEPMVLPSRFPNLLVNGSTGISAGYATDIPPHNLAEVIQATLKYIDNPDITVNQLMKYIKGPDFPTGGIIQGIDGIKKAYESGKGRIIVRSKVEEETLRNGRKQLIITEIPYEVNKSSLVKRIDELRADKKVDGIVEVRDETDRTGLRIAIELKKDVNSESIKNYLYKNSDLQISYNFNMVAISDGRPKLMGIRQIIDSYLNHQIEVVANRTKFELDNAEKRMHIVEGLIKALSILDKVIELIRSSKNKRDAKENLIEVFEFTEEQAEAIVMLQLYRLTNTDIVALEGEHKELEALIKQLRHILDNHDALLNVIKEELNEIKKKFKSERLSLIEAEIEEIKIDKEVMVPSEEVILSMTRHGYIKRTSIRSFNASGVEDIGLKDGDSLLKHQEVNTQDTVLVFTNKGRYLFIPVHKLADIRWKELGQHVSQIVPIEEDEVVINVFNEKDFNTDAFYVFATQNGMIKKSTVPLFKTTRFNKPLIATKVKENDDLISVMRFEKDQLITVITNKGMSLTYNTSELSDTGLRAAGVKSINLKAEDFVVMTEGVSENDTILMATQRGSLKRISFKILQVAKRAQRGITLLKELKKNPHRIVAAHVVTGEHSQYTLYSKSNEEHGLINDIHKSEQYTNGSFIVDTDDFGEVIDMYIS
T1 sequence (P0C1S7 whole entry): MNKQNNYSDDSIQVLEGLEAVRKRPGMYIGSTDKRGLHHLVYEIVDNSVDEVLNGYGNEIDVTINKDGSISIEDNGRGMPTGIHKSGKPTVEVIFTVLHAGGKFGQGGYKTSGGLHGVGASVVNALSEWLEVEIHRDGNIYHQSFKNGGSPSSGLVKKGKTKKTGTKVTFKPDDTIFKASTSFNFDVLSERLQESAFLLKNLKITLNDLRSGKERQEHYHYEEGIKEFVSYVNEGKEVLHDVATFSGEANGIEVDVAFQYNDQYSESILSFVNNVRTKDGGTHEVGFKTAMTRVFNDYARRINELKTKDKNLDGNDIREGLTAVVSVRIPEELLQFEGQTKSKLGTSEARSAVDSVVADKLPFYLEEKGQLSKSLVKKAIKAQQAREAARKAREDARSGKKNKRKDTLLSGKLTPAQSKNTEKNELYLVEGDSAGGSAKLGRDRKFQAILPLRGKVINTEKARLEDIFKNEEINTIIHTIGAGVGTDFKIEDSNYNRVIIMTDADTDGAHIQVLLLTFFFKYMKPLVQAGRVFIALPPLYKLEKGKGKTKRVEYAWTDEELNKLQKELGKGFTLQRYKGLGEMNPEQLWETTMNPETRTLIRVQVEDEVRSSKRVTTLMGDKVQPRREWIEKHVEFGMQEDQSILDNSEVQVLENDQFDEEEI
T2 sequence (P20831 whole entry): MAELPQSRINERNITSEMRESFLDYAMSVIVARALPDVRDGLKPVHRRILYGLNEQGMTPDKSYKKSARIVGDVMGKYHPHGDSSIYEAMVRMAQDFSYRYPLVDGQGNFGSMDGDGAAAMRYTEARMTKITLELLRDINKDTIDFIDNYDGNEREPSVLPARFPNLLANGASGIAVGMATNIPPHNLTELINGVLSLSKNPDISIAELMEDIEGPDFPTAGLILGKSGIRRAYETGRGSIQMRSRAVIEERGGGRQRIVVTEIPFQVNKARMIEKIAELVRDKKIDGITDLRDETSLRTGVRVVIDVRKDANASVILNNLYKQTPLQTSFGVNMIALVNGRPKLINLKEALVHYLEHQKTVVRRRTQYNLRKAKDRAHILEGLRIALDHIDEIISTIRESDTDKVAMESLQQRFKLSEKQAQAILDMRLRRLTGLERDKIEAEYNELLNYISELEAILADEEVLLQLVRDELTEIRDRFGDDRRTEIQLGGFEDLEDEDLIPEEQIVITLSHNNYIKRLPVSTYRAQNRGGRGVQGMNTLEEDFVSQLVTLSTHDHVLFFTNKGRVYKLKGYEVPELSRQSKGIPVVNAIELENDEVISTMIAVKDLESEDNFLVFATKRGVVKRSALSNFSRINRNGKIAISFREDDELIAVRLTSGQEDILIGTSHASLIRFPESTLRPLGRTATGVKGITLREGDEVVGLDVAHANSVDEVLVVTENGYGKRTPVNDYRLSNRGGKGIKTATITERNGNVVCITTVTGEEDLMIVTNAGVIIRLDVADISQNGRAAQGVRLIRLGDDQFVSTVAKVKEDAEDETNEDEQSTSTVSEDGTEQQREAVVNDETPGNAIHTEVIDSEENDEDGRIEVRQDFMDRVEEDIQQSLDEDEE
T2 sequence (P0A0K8 whole entry): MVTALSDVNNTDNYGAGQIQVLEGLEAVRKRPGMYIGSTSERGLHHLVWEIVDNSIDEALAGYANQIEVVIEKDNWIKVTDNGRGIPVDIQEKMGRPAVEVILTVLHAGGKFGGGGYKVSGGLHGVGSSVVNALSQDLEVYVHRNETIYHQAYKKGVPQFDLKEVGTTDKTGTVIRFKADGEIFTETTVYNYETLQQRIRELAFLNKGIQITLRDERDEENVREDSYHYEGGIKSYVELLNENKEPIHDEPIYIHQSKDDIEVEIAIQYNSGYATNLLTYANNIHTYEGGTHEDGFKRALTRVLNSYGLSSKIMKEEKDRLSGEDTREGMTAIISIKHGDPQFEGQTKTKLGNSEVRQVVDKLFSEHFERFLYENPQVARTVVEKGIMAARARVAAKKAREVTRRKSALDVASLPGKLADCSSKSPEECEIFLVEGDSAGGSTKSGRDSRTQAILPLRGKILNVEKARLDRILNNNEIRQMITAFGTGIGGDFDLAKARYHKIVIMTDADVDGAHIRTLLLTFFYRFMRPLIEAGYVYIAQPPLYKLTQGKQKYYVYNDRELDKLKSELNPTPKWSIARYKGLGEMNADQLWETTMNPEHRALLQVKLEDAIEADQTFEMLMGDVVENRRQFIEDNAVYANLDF

Row | Compound | MIC (S. aureus NCTC 4163) [mg/L] | MIC [3] [mg/L] | MIC (P. aeruginosa ATCC 27853) [mg/L] | MIC [5] [mg/L] | MIC (S. aureus ATCC 25923) [mg/L] | MIC [6] [mg/L] | MIC (S. aureus ATCC 6538) [mg/L] | MIC [7] [mg/L] | MIC [8] [mg/L] | IC50 (PC3 cells; Homo sapiens, PC-3, 72 h) [µM] | SI PC3 (PC3 cells) | IC50 (SW620 cells) [µM] | SI SW620 (SW620 cells) | IC50 (HaCaT cells) [µM] | MIC (S. aureus ATCC 29213) [mg/L] | IC50 (SW480 cells) [µM] | SI SW480 (SW480 cells) | MIC [11] [mg/L] | MIC [12] [mg/L] | MIC [13] [mg/L] | other results
1 | CCC=CCC=CCC=CCC=CCC=CCC=CCCC(=O)N1CCN(c2cc3c(cc2F)c(=O)c(C(=O)O)cn3C2CC2)CC1 [Compound 8] | – | – | – | – | – | – | – | – | – | – | – | – | – | – | – | – | – | – | – | – | IC50 ([1]; read-out: IC50 for Topo IV, inhibition of kDNA decatenation, 30 min at 37 °C): > 99.7 µM; IC50 (S. aureus DNA gyrase [2]): > 99.7 µM
2 | C/C=C/C(=O)N1CCCC2CN(c3c(F)cc4c(=O)c(C(=O)O)cn(C5CC5)c4c3OC)CC21 (stereo not shown) [Compound 1m, 7-{1-(E)-But-2-enoyl-octahydro-pyrrolo[3,4-b]pyridin-6-yl}-1-cyclopropyl-6-fluoro-8-methoxy-4-oxo-1,4-dihydro-quinoline-3-carboxylic acid] | 0.5 (≈ 1.06 µM) | 1 (≈ 2.13 µM) | > 512 | 0.5 to 2 (≈ 1.06 to 4.26 µM) | 0.5 (≈ 1.06 µM) | 0.5 (≈ 1.06 µM) | 0.5 (≈ 1.06 µM) | 1 (≈ 2.13 µM) | 1 (≈ 2.13 µM) | 23.8 ± 3.4 | 2.7 | 24.8 ± 3.2 | 2.6 | 64.1 ± 2.3 | 0.5 (≈ 1.06 µM) | 31.6 ± 4.7 | 2.0 | 64 (≈ 136 µM) | 32 (≈ 68.2 µM) | 1 (≈ 2.13 µM) | IC50 (S. aureus DNA gyrase [4]): > 136 µM; MIC E. coli ATCC 25922 (E. coli ATCC 25922; 18 h of treatment): 2 to 16 mg/L; MIC (E. coli ATCC 25922; ATCC25922, 18 h of treatment): 16 mg/L (≈ 34.1 µM); IC50 [1]: 130 µM; MIC (M. tuberculosis strains): 64 mg/L (≈ 136 µM); MIC ([9]; 18 h): 0.5 to 1 mg/L (≈ 1.06 to 2.13 µM); MIC [10]: 64 mg/L (≈ 136 µM); MIC (M. tuberculosis H37Rv): 64 mg/L (≈ 136 µM); MIC [14]: 1 mg/L (≈ 2.13 µM); MIC [15]: 0.5 mg/L (≈ 1.06 µM)
3 | COc1c(N2CC3CCCN(C(C)=O)C3C2)c(F)cc2c(=O)c(C(=O)O)cn(C3CC3)c12 (stereo not shown) [Compound 14m, 7-(1-Acetyl-octahydro-pyrrolo[3,4-b]pyridin-6-yl)-1-cyclopropyl-6-fluoro-8-methoxy-4-oxo-1,4-dihydro-quinoline-3-carboxylic acid] | 0.25 (≈ 0.564 µM) | 0.5 (≈ 1.13 µM) | > 512 | 0.25 to 1 (≈ 0.564 to 2.25 µM) | 0.25 (≈ 0.564 µM) | 0.5 (≈ 1.13 µM) | 0.25 (≈ 0.564 µM) | 0.5 (≈ 1.13 µM) | 0.5 (≈ 1.13 µM) | 12.5 ± 1.6 | 6.9 | 18.4 ± 3.2 | 4.7 | 86.5 ± 2.1 | 0.5 (≈ 1.13 µM) | 14.3 ± 3.2 | 6.0 | 32 (≈ 72.2 µM) | 32 (≈ 72.2 µM) | 0.5 (≈ 1.13 µM) | IC50 (S. aureus DNA gyrase [4]): 133 µM; MIC E. coli ATCC 25922 (E. coli ATCC 25922; 18 h of treatment): 2 to 16 mg/L; MIC (E. coli ATCC 25922; ATCC25922, 18 h of treatment): 8 mg/L (≈ 18 µM); IC50 [1]: 135 µM; MIC (M. tuberculosis strains; summary over strains): 64 mg/L (≈ 144 µM); MIC [9]: 0.5 mg/L (≈ 1.13 µM); MIC ([10]; 2 weeks of treatment): 64 mg/L (≈ 144 µM); MIC (M. tuberculosis H37Rv; 2 weeks of treatment): 64 mg/L (≈ 144 µM); MIC [14]: 0.5 mg/L (≈ 1.13 µM); MIC [15]: 0.5 mg/L (≈ 1.13 µM)
4 | CCCCCCCC(=O)N1CCCC2CN(c3c(F)cc4c(=O)c(C(=O)O)cn(C5CC5)c4c3OC)CC21 (stereo not shown) [Compound 15m, 1-Cyclopropyl-6-fluoro-8-methoxy-7-(1-octanoyl-octahydro-pyrrolo[3,4-b]pyridin-6-yl)-4-oxo-1,4-dihydro-quinoline-3-carboxylic acid] | 4 (≈ 7.58 µM) | 8 (≈ 15.2 µM) | 512 (≈ 970 µM) | 4 to 8 (≈ 7.58 to 15.2 µM) | 4 (≈ 7.58 µM) | 8 (≈ 15.2 µM) | 4 (≈ 7.58 µM) | 4 (≈ 7.58 µM) | 8 (≈ 15.2 µM) | < 5 | 28.1 | 4.7 ± 1.5 | 18.6 | 87.2 ± 3.6 | 4 (≈ 7.58 µM) | 3.2 ± 0.8 | 27.3 | 8 (≈ 15.2 µM) | 8 (≈ 15.2 µM) | 4 (≈ 7.58 µM) | MIC (E. coli ATCC 25922; ATCC25922, 18 h): 128 mg/L (≈ 243 µM); IC50 [16]: < 5 µM; MIC (M. tuberculosis strains): ≥ 128 mg/L; IC50 (PC3 cells): 3.1 ± 0.9 µM; MIC [10]: 128 mg/L (≈ 243 µM); MIC (M. tuberculosis H37Rv; 2 weeks of treatment): 256 mg/L (≈ 485 µM); MIC [14]: 8 mg/L (≈ 15.2 µM); MIC [15]: 8 mg/L (≈ 15.2 µM); MIC [17]: 8 mg/L (≈ 15.2 µM)
